Reference: paper PMC11356900, “Synthesis, Structural Properties and Biological Activities of Novel Hydrazones of 2-, 3-, 4-Iodobenzoic Acid” (Molecules, 2024)
Values after ≈ are worked out from the molar mass of the structure shown. Like-named read-outs stand apart in the source and are kept apart here.

Tests used:
[1] = test system: Staphylococcus aureus ATCC 43300; assay: Broth microdilution MIC/MBC; details: ATCC43300 / MRSA
[2] = test system: Candida albicans ATCC 10231; assay: Broth microdilution MIC/MFC; assay type: cell-based; details: ATCC10231, read-out: MIC
Source text: (§1) Procedures of in vitro antimicrobial assays are described in Supplementary Materials.
(§2) 2. Microbiology – in vitro antimicrobial activity assays […]
(§3) using the broth microdilution method according to the European Committee on Antimicrobial Susceptibility Testing (EUCAST) and Clinical and Laboratory Standards Institute guidelines against a panel of reference and clinical or saprophytic strains of mi croorganisms, including the Gram-positive bacteria: Staphylococcus aureus ATCC 43300 (Methi-cillin Resistant S. aureus – MRSA), Staphylococcus aureus ATCC 29213 (Methicillin Susceptible S. aureus – MSSA), Staph-ylococcus epidermidis ATCC 12228, Micrococcus luteus ATCC 10240, Bacillus subtilis ATCC 6633 and Bacillus cereus ATCC 10876), Gram-negative bacteria: Bordetella bronchiseptica ATCC 4617, Escherichia coli ATCC 25922, Klebsiella pneumoniae ATCC 13883, Proteus mirabilis ATCC 12453, Salmonella typhimurium ATCC 14028 and Pseudomonas aeruginosa ATCC 9027, and fungi belonging to yeasts: Candida albicans ATCC 10231, Candida albicans ATCC 2091, Candida parapsilosis ATCC 22019, Candida glabrata ATCC 90030 and Candida krusei ATCC 14243. The microorganisms belonging to ATCC originated from American Type Culture Collection, routinely used for the evaluation of antimicrobials. All the used microbial cultures were first subcultured on nutrient agar or Sabouraud agar at 35°C for 18-24 h or 30°C for 24-48 h for bacteria […]
(§4) The surface of Mueller-Hinton agar (for bacteria) and RPMI 1640 with MOPS (for fungi) were inoculated with the suspensions of bacterial or fungal species. Microbial suspensions were prepared in sterile saline with an optical density of McFarland standard scale 0.5. The samples containing the compounds were dissolved in dimethyl sulfoxide (DMSO).
(§5) Furthermore, the bacterial and fungal suspensions put onto the Petri dishes with solid media containing 2 mg/mL of the tested compounds followed were incubated at 37°C for 24h and 30°C for 48h for bacteria and fungi, respectively.
(§6) The inhibition of microbial growth was estimated comparing with a control culture prepared without any tested sam- […]
(§7) antifungal compounds, respectively.
(§8) Subsequently, MIC (Minimal Inhibitory Concentration) of the compounds was examined by the microdilution broth method, using their two-fold dilutions in Mueller-Hinton broth (for bacteria) and RPMI 1640 broth with MOPS (for fungi) prepared in the 96-well polystyrene plates. The final concentrations of the compounds ranged from 1000 to 0.488 µg/mL. Microbial suspensions were prepared in 0.85% NaCl with an optical density of 0.5 McFarland standard. Next each bacterial or fungal suspension was added per each well containing broth and various concentrations of the exam-ined compounds. After incubation, the MIC was assessed spectrophotometrically as the lowest concentration of the […]
(§9) Appropriate DMSO, growth and sterile controls were carried out. The medium with no tested substances was used as a control The MBC (Minimal Bactericidal Concentration) and MFC (Minimal Fungicidal Concentration) are defined as the lowest concentration of the compounds that is required to kill a particular bacterial or fungal species. The MBC/MFC was determined by removing the culture used for the MIC determination from each well and spotted onto the appro-priate agar medium. The plates were incubated under appropriate conditions for bacteria and fungi. The lowest com-pounds concentration with no visible growth observed was assessed as a bactericidal/fungicidal concentration. All the experiments were repeated three times and the representative data are presented.
(§10) 1. European Committee for Antimicrobial Susceptibility Testing (EUCAST) Determination of minimum inhibitory con-centrations (MICs) of antibacterial agents by broth dilution. EUCAST discussion document E. Dis 5.1. Clin. Microbiol.
(§11) 2. Clinical and Laboratory Standards Institute. Reference method for broth dilution antifungal susceptibility testing of […]

[3] = test system: Candida parapsilosis ATCC 22019; assay: Broth microdilution MIC/MFC; assay type: cell-based; details: Lodderomyces parapsilosis; for MIC: ATCC22019, read-out: MIC
Source text: as §1, §2, §3, §4, §5, §6, §7, §8, §9, §10, §11

[4] = test system: Candida glabrata ATCC 90030; assay: Broth microdilution MIC/MFC; assay type: cell-based; details: Nakaseomyces glabratus, ATCC90030, read-out: MIC
Source text: as §1, §2, §3, §4, §5, §6, §7, §8, §9, §10, §11

[5] = test system: Candida krusei ATCC 14243; assay: Broth microdilution MIC/MFC; assay type: cell-based; details: Pichia kudriavzevii, ATCC14243, read-out: MIC
Source text: as §1, §2, §3, §4, §5, §6, §7, §8, §9, §10, §11

[6] = test system: Candida albicans ATCC 2091; assay: Broth microdilution MIC/MFC; assay type: cell-based; details: ATCC2091, read-out: MIC
Source text: as §1, §2, §3, §4, §5, §6, §7, §8, §9, §10, §11

[7] = test system: Bacillus cereus ATCC 10876; assay: Broth microdilution MIC/MBC; details: Bacillus cereus, ATCC10876
[8] = test system: Bordetella bronchiseptica ATCC 4617; assay: Broth microdilution MIC/MBC; details: ATCC4617
[9] = test system: Staphylococcus aureus ATCC 29213; assay: Broth microdilution MIC/MBC; details: ATCC29213
[10] = test system: Salmonella typhimurium ATCC 14028; assay: Broth microdilution MIC/MBC; details: Salmonella enterica
[11] = test system: Micrococcus luteus ATCC 10240; assay: Broth microdilution MIC/MBC; details: Micrococcus luteus, ATCC10240
[12] = test system: Staphylococcus aureus ATCC 25923; assay: Broth microdilution MIC/MBC; details: Staphylococcus aureus, ATCC25923
[13] = test system: Pseudomonas aeruginosa ATCC 9027; assay: Broth microdilution MIC/MBC; details: ATCC9027
[14] = test system: Klebsiella pneumoniae ATCC 13883; assay: Broth microdilution MIC/MBC; details: ATCC13883
Gram-positive bacteria = assay: Broth microdilution, summary over reference Gram-positive bacteria; assay type: cell-based
Source text: as §1, §2, §3, §4, §5, §6, §7, §8, §9, §10, §11

[15] = test system: Proteus mirabilis ATCC 12453; assay: Broth microdilution MIC/MBC; details: ATCC12453
[16] = test system: Bacillus subtilis ATCC 6633; assay: Broth microdilution MIC/MBC; details: ATCC6633
[17] = test system: Staphylococcus epidermidis ATCC 12228; assay: Broth microdilution MIC/MBC; details: ATCC12228
[18] = test system: Escherichia coli ATCC 25922; assay: Broth microdilution MIC/MBC; details: ATCC25922

SMILES	MIC [1]	MIC [2]	MIC [3]	MIC [4]	MIC [5]	MIC [6]	MIC [7]	MIC [8]	MIC [9]	MIC [10]	MBC [11]	MIC [11]	MIC [12]	MIC [13]	MIC [14]	MIC [15]	MBC [16]	MIC [16]	MBC [17]	MIC [17]	further results
NNC(=O)c1cccc(I)c1 [Compound 5, 3-iodobenzohydrazide]	> 1000 µg/mL	> 1000 µg/mL	> 1000 µg/mL	> 1000 µg/mL	> 1000 µg/mL	> 1000 µg/mL	> 1000 µg/mL	> 1000 µg/mL	> 1000 µg/mL	> 1000 µg/mL	> 1000 µg/mL	1000 µg/mL (≈ 3820 µM)	> 1000 µg/mL	> 1000 µg/mL	> 1000 µg/mL	> 1000 µg/mL	> 1000 µg/mL	1000 µg/mL (≈ 3820 µM)	> 1000 µg/mL	1000 µg/mL (≈ 3820 µM)	MIC (Gram-positive bacteria): 31.2 to 1000 µg/mL (≈ 119 to 3820 µM); melting point: 134 to 140 °C; MIC [18]: > 1000 µg/mL
O=C(N/N=C/c1cccc([N+](=O)[O-])c1O)c1cccc(I)c1 [Compound 15, N-[(2-hydroxy-3-nitrophenyl)methylidene]-3-iodobenzohydrazide]	1000 µg/mL (≈ 2430 µM)	> 1000 µg/mL	> 1000 µg/mL	> 1000 µg/mL	> 1000 µg/mL	> 1000 µg/mL	125 µg/mL (≈ 304 µM)	> 1000 µg/mL	250 µg/mL (≈ 608 µM)	> 1000 µg/mL	125 µg/mL (≈ 304 µM)	31.2 µg/mL (≈ 76 µM)	250 µg/mL (≈ 608 µM)	> 1000 µg/mL	> 1000 µg/mL	> 1000 µg/mL	500 µg/mL (≈ 1220 µM)	125 µg/mL (≈ 304 µM)	125 µg/mL (≈ 304 µM)	31.2 µg/mL (≈ 76 µM)	MBC [1]: > 1000 µg/mL; MBC [7]: 250 µg/mL (≈ 608 µM); MBC [9]: > 1000 µg/mL; MBC [12]: > 1000 µg/mL; MIC (Gram-positive bacteria): 31.2 to 500 µg/mL (≈ 76 to 1220 µM); melting point: 190 to 199 °C; MIC [18]: > 1000 µg/mL
O=C(N/N=C/c1cc(Cl)cc(Cl)c1O)c1cccc(I)c1 [Compound 17, N-[(3,5-dichloro-2-hydroxyphenyl)methylidene]-3-iodobenzohydrazide]	15.6 µg/mL (≈ 35.9 µM)	> 1000 µg/mL	> 1000 µg/mL	> 1000 µg/mL	> 1000 µg/mL	> 1000 µg/mL	15.6 µg/mL (≈ 35.9 µM)	> 1000 µg/mL	15.6 µg/mL (≈ 35.9 µM)	> 1000 µg/mL	15.6 µg/mL (≈ 35.9 µM)	15.6 µg/mL (≈ 35.9 µM)	31.2 µg/mL (≈ 71.8 µM)	> 1000 µg/mL	> 1000 µg/mL	> 1000 µg/mL	15.6 µg/mL (≈ 35.9 µM)	7.81 µg/mL (≈ 18 µM)	62.5 µg/mL (≈ 144 µM)	15.6 µg/mL (≈ 35.9 µM)	MBC [1]: 15.6 µg/mL (≈ 35.9 µM); MBC [7]: 15.6 µg/mL (≈ 35.9 µM); MBC [9]: 15.6 µg/mL (≈ 35.9 µM); MBC [12]: 31.2 µg/mL (≈ 71.8 µM); MIC (Gram-positive bacteria): 7.81 to 31.2 µg/mL (≈ 18 to 71.8 µM); melting point: 210 to 212 °C; MIC [18]: > 1000 µg/mL
CCOc1cccc(/C=N/NC(=O)c2cccc(I)c2)c1O [Compound 18, N-[(3-ethoxy-2-hydroxyphenyl)methylidene]-3-iodobenzohydrazide]	> 1000 µg/mL	> 1000 µg/mL	> 1000 µg/mL	> 1000 µg/mL	> 1000 µg/mL	> 1000 µg/mL	> 1000 µg/mL	> 1000 µg/mL	> 1000 µg/mL	> 1000 µg/mL	250 µg/mL (≈ 609 µM)	31.2 µg/mL (≈ 76.2 µM)	> 1000 µg/mL	> 1000 µg/mL	> 1000 µg/mL	> 1000 µg/mL	> 1000 µg/mL	62.5 µg/mL (≈ 152 µM)	> 1000 µg/mL	500 µg/mL (≈ 1220 µM)	MIC (Gram-positive bacteria): 31.2 to 1000 µg/mL (≈ 76.2 to 2440 µM); melting point: 115 to 121 °C; MIC [18]: > 1000 µg/mL
O=C(N/N=C/c1ccccc1O)c1ccc(I)cc1 [Compound 23, N-[(2-hydroxyphenyl)methylidene]-4-iodobenzohydrazide]	500 µg/mL (≈ 1370 µM)	> 1000 µg/mL	1000 µg/mL (≈ 2730 µM)	> 1000 µg/mL	> 1000 µg/mL	> 1000 µg/mL	1000 µg/mL (≈ 2730 µM)	> 1000 µg/mL	500 µg/mL (≈ 1370 µM)	> 1000 µg/mL	> 1000 µg/mL	500 µg/mL (≈ 1370 µM)	1000 µg/mL (≈ 2730 µM)	> 1000 µg/mL	> 1000 µg/mL	> 1000 µg/mL	> 1000 µg/mL	1000 µg/mL (≈ 2730 µM)	> 1000 µg/mL	1000 µg/mL (≈ 2730 µM)	MBC [1]: > 1000 µg/mL; MFC ([3]; ATCC22019, read-out: MFC): > 1000 µg/mL; MBC [7]: > 1000 µg/mL; MBC [9]: > 1000 µg/mL; MBC [12]: > 1000 µg/mL; MBC (Gram-positive bacteria; range over the reference Gram-positive bacteria, read-out: MBC): > 1000 µg/mL; MIC (Gram-positive bacteria; range over the reference Gram-positive bacteria, read-out: MIC): 500 to 1000 µg/mL (≈ 1370 to 2730 µM); antibacterial activity in words (Gram-positive bacteria; reference Gram-positive bacteria / studied bacteria): moderate or mild; melting point: 195 to 205 °C; MIC [18]: > 1000 µg/mL
